ChEMBL document CHEMBL5247626, “In vitro and in vivo biological evaluation of newly synthesized multi-target 20(R)-panaxadiol derivatives for treating Alzheimer's disease” (Eur J Med Chem, 2022)
Activity calls are given as the source filed them. The rule behind the calls is not given here.

What was measured:
PC-12 [1] = assay: Neuroprotective activity against amyloid beta (25 to 35)-induced rat PC12 cells assessed as decrease in COX-2 expression level at 7.5 to 30 uM preincubated for 30 mins followed by amyloid beta (25 to 35) addition and measured after 24 hrs by western blot assay; type: functional, cell-based; conditions: dose 7.5-30 µM, time 24.5 hrs
Mus musculus = assay: Antialzheimer activity against amyloid beta (25 to 35)-induced brain injury ICR mouse model assessed as attenuation of pathological change in hippocampal CA3 region at 12.5 to 50 mg/kg,po administrated for 21 days by hematoxylin and eosin staining based microscopic analysis; type: functional, organism-based; conditions: dose 12.5-50 mg/kg, time 21.0 day
PC-12 [2] = assay: Neuroprotective activity against rat PC12 cells assessed as reduction in amyloid beta (25 to 35)-induced cytotoxicity at 2.67 to 91.27 uM incubated for 4 hrs followed by amyloid beta (25 to 35) treatment for 24 hrs by MTT assay relative to control; type: functional; design: scale not given: the % may be the effect or the level left; conditions: dose 2.67-91.27 µM, time 28 hrs
[3] = Cmax in Sprague-Dawley rat at 60 mg/kg,po measured at 0.25 to 24 hrs post administration by LC-MS/MS analysis; type: ADME, organism-based; design: dose 60 mg/kg, time upper 24 hrs, time lower 0.25 hrs, route po; conditions: in vivo

Cmax [3]: 220 ng/mL
Structure (SMILES): CC1(C)CCC[C@](C)([C@H]2CC[C@]3(C)[C@@H]2[C@H](O)C[C@@H]2[C@@]4(C)CC[C@H](OC(=O)NCc5ccccc5)C(C)(C)[C@@H]4CC[C@]23C)O1
Activity (PC-12 [1]): Active
Activity (Mus musculus): Active
Activity (PC-12 [2]): 14.89%
